According to ChEMBL document CHEMBL4256947, “Treatment of pancreatic and related cancers with 5-acyl-6,7-dihydrothieno[3,2-c]pyridines” (2016):

Target: Protein-cysteine N-palmitoyltransferase HHAT (Homo sapiens) (UniProt Q5VTY9)
Test: Inhibition of HA/FLAG/His-tagged Hhat (unknown origin) expressed in human 293T cells at 25 uM using biotinylated Shh peptide as substrate pretreated for 20 mins followed by [125I]-iodo-palitoylCoA/substrate addition measured after 1 hr by gamma counting method relative to control

Chain of Protein-cysteine N-palmitoyltransferase HHAT (Homo sapiens) (Q5VTY9 whole entry): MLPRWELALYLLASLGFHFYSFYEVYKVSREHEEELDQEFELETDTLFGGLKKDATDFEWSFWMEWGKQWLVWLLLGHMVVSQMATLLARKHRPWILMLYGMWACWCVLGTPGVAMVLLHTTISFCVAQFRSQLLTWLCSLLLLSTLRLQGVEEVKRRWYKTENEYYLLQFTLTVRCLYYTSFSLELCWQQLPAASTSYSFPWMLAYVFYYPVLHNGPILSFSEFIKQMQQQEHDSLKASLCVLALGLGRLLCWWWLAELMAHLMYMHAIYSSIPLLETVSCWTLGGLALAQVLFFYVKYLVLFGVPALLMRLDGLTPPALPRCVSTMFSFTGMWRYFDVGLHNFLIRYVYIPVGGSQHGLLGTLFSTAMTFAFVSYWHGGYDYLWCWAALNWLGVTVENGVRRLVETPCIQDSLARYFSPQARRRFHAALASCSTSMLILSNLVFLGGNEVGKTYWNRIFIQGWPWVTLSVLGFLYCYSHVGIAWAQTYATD

SMILES	inhibition
CCC(C)CNCC(=O)N1CCc2sccc2C1c1cccc(C)n1 (configuration not stated)	> 75%
CCC(C)CNCC(=O)N1CCc2sccc2C1c1cccc(C)c1 (configuration not stated)	> 75%
